# Measurements as given in publication PMC10882959, “Gas-Selective Catalytic Regulation by a Newly Identified Globin-Coupled Sensor Phosphodiesterase Containing an HD-GYP Domain from the Human Pathogen Vibrio fluvialis” (Biochemistry, 2024).
# “And” between values parts separate entries of the source, which are not always exact repeats. Identical values can stand only once.
# B1: Vibrio furnissii GCS-HD-GYP (enzyme, UniProt A0A0Q2RS25 1-375, looked up)
# chain: MEVAFGSDPGNAIRRWASYLAIDQQTVDALREYYWIMERNIDEVLAFVYDHLSSCPETAQFYQNEQSIVRARGHLRDHLMLYVFRGHFGVDYYNATIRIGQTHQRLGIDFKVYSGAYCIVMSQLARVVYQSLAPNIDNIHRYMSALNRAIFLDLGLATAVYYDTACFELEELAYELNFALAKAGEFRDNETGEHIKRISRMSFELAKALGQPAHWCKMIQIASPLHDVGKIGVPDEILLKPGKLDADEWKLMQQHPAIGGDIIPDNKSELIRMARRISLTHHEKWDGSGYPAGLAGEEIPLEGRIVAICDVFDALLSTRPYKRAWSVAEVVAYLRENRAKHFDPLLLDCFLEHLDSMLHIRHQFEDAAQPETVAD
# notes: GCS-HD-GYP of Vibrio furnissii, gene AMR76_07425, UniProtKB A0A0Q2RS25; molecular mass 43.9 kDa with the C-terminal His6 tag; The synthetic, codon-optimised gene was put into pET-21a (NdeI/XhoI); also called V. furnissii GCS-HD-GYP; AMR76_07425; source: E. coli, purified; not shown: His6, C-terminal, kept
# B2: Vibrio fluvialis GCS-HD-GYP (globin-coupled sensor phosphodiesterase containing an HD-GYP domain) (enzyme, UniProt A0AAX2LUU7 1-375, looked up)
# chain: METAFSSEPESVIRRWASYLVIDQQTLNTLREFYWVMEQNIDDILSHVYAHLSSNRETAHFYQDEQSVKRAKAHQREHMMRYVFRGNFGAEYYNATNRIGKTHHKLGIDFKIYSGAYCIVLSQLAGVVYKVLAPEIGNVQRYMTALNRVIFMDMGLATSVYYDTACLELEELAHELNFALAKAGEFRDNETGEHIKRISRMSFELAKAAGQEPHWCKMIQIASPLHDVGKIGVPDDILLKPGKLDEQEWNVMQQHPAMGGVIIPDNKSELIRMARRISLTHHEKWDGSGYPAGLKGEEIPLEGRIVAICDVFDALLSTRPYKRPWSMEEVGTYLRDNRGKHFDPQLLDIFIENLANMQLIRCQFEDAVSPEIVAD
# notes: GCS-HD-GYP of Vibrio fluvialis, gene AL536_01530, UniProtKB A0A120L350; full-length protein, predicted mass 44.1 kDa with the C-terminal His6 tag; globin domain residues 1-166, HD-GYP domain residues 169-366; Synthetic, codon-optimised gene in pET-21a (NdeI/XhoI); Mostly a dimer, with a minor tetramer peak by SEC; also called V. fluvialis GCS-HD-GYP; AL536_01530; source: E. coli BL21(DE3), …
# Assays:
# [1] = molecular target: T1, GCS-HD-GYP (V. fluvialis) (Vibrio fluvialis, UniProt A0AAX2LUU7); experiment: HPLC hydrolysis assay, […] nm; type: biochemical; settings: 1 mM MnCl2, pH 8.0, 20 °C
# T1 construct: gene AL536_01530; full length, C-terminal His6 tag kept, pET-21a (codon-optimized), E. coli BL21(DE3), heme-reconstituted in crude extract; mainly dimer (85 kDa by SEC)
# V. furnissii GCS-HD-GYP = molecular target: T2, V. furnissii GCS-HD-GYP (Vibrio furnissii, UniProt A0A0Q2RS25); experiment: HPLC hydrolysis assay, […] nm; type: biochemical; settings: 1 mM MnCl2, pH 8.0, 20 °C; Fe(III) heme form; optimal conditions of V. fluvialis enzyme
# T2 construct: gene AMR76_07425; full length, C-terminal His6 tag kept, pET-21a (codon-optimized), E. coli host; dimer
# [2] = molecular target: the molecule itself; experiment: SEC; Superdex 200 Increase 10/300 GL, 50 mM Tris-HCl pH 8.0, 100 mM NaCl; 100 uL of 20 uM protein injected; mass estimated from standard proteins
molecule,measurement,setting,value
Nc1nc2c(ncn2[C@@H]2O[C@@H]3COP(=O)(O)O[C@H]4[C@@H](O)[C@H](n5cnc6c(=O)[nH]c(N)nc65)O[C@@H]4COP(=O)(O)O[C@H]3[C@H]2O)c(=O)[nH]1 [c-di-GMP],"HPLC hydrolysis assay, 254 nm","[1]; 0.1 mM c-di-GMP, Fe(III) or Fe(II)-O2 heme form",The Fe(III) and Fe(II)-O2 complexes of GCS-HD-GYP catalyzed the hydrolysis of c-di-GMP to form pGpG
same,"HPLC hydrolysis assay, 254 nm",V. furnissii GCS-HD-GYP,the specific activity for the PDE activity of the Fe(III) complex of V. furnissii GCS-HD-GYP
Nc1nc2c(ncn2[C@@H]2O[C@H](COP(=O)(O)O[C@H]3[C@@H](O)[C@H](n4cnc5c(=O)[nH]c(N)nc54)O[C@@H]3COP(=O)(O)O)[C@@H](O)[C@H]2O)c(=O)[nH]1 [pGpG],"HPLC hydrolysis assay, 254 nm","[1]; product of c-di-GMP hydrolysis, Fe(III) heme form","conversion of c-di-GMP to a new compound, namely its linearized product pGpG"
B1,stoichiometry N,[2],2
B2,stoichiometry N,[2],2 and 4
